Measurements reported in PMC8838415, “Discovery of Novel Pleuromutilin Derivatives as Potent Antibacterial Agents for the Treatment of MRSA Infection” (Molecules, 2022).
≈ marks a conversion by molar mass, not a printed value.

Assays:
S. aureus (144) = assay: MIC and MBC, broth dilution, S. aureus 144; type: cell-based; conditions: Staphylococcus aureus; S. aureus 144 (clinical strain)
How it was run: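 Compounds, in 2.5% tween-80/2.5% DMSO, serially diluted in MH broth over 32–0.01 µg/mL with 5 × 10^5 CFU/mL inoculum, triplicates, 22–26 h at 37 °C; MIC = lowest concentration with no visible growth. MBC from plating non-turbid wells on MH agar, further 22–26 h at 37 °C.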

50S ribosome = assay: SPR interaction and affinity analysis; type: binding, S. aureus ATCC 43300; conditions: 4 °C
How it was run: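 50S subunit purified from S. aureus ATCC 43300 by sucrose cushion/gradient; compounds (100 μM in DMSO) photo-cross-linked on sensor chip. Ribosome flowed at 200–3200 nM in PBST pH 7.4, 4 °C, 600 s association, 360 s dissociation. KD = Kd/Ka from 1:1 Langmuir fit with mass transfer.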

CYP3A4 = CYP3A4 (Homo sapiens, UniProt P08684); assay: Human liver microsomal CYP3A4 enzyme inhibition; type: in vitro ADME; parameters: from tissue; host or cells: human liver microsomes; conditions: human liver microsomes, testosterone substrate
Protocol: The inhibitory effect of compound 9 on CYP3A4 was evaluated according to previous work. The experiments were performed in 96-well plates with a final incubation volume of 100 µL per well. A total of 20 µL of compound 9 was added to 96-well plates, with final concentrations of 0.25, 0.5, 1, 5, 10, and 50 µM. Then, 40 µL of human liver microsomes (final concentration of human liver microsomes was 0.2 mg/mL) and 20 µL of probe substrates (final concentration of testosterone was 20 μmol/L) in 0.1 M Tris (pH = 7.4) were added. After preincubation at 37 °C for 5 min, the reaction started with the addition of 20 µL of NADPH (final concentration is 1 mmol/L). Then, the plate was incubated at 37 °C for 5 min, and then 100 μL acetonitrile (with loratadine used as an internal standard) was added to terminate the reaction. After the reactions were completed, the plates were centrifuged and the supernatants were analyzed for the loratadine and probe substrates testosterone by LC-MS/MS.

CYP3A4, sequence (P08684 whole entry): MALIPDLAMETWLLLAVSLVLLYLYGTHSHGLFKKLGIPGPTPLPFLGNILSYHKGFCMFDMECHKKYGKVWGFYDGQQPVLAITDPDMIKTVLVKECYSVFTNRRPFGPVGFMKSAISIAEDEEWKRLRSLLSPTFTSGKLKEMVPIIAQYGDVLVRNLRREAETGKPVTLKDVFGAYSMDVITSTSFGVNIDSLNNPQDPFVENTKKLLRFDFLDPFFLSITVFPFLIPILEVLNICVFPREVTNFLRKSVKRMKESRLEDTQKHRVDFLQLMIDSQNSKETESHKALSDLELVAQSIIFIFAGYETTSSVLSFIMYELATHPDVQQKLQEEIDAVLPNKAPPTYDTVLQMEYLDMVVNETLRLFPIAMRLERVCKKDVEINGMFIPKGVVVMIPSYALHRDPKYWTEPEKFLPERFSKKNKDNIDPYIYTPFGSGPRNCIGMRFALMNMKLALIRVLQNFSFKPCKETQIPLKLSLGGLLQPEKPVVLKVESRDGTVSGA

- MIC (S. aureus (144)): 0.5 µg/mL (≈ 1.06 µM)
- Avg kd (50S ribosome; 1:1 Langmuir binding): 7.39e-06 s⁻¹
- Kd (50S ribosome; KD = Kd/Ka): 0.0177 µM
- IC50 (CYP3A4): 6.19 µM
- IC50 (CYP3A4; converted with MW): 6.19 µM
SMILES: C=C[C@]1(C)C[C@@H](OC(=O)CNc2ccc(F)cc2)[C@]2(C)[C@H](C)CC[C@]3(CCC(=O)[C@H]32)[C@@H](C)[C@@H]1O [Compound 9, 22-(4-Fluoroanilineyl)-22-deoxypleuromutilin]
- MBC (S. aureus (144)): 1 µg/mL (≈ 2.12 µM)
- Avg ka (50S ribosome; 1:1 Langmuir binding): 417 M⁻¹ s⁻¹
